The conditions of series [1]: calcium, magnesium, manganese, iron and zinc; cited from earlier work.
For series [2] the following is noted: lead, mercury and arsenic; numerous animal studies; cited from earlier work.
Series [3] deals with HIV-1. The experiment in a line: microbe, parasite or virus in culture. From the text:
(§1) FIGS. 1-4 are plots of the log10 of the meso-2,3 dimercaptosuccinic acid concentrations (as moles/L or Molar) against the measured test values expressed as a percentage of the uninfected, untreated control values.
The procedure used to test dimercaptosuccinic acid's activity against Human Immunodeficiency Virus (HIV) is the assay developed by Owen S. Weislow et al. described in "Journal of the National Cancer Institute," Vol. 81, No. 8, April 19, 1989 which is hereby incorporated herein by reference. The assay basically involves the killing of T4 lymphocytes by HIV. Small amounts of HIV are added to cells, and a complete cycle of virus reproduction is necessary to obtain the required cell killing. Agents that interact with virions, cells, or virus gene-products to interfere with viral activities will protect cells from cytolysis. All tests are compared with at least one positive (e.g., AZT-treated) control done at the same time under identical conditions.
(§2) 1. Dimercaptosuccinic acid was dissolved in dimethyl sulfoxide (unless otherwise instructed) then diluted 1:100 in cell culture medium before preparing serial half-log10 dilutions. T4 lymphocytes (CEM cell line) were added and after a brief interval HIV-1 is added, resulting in a 1:200 final dilution of the compound. Uninfected cells with the compound serve as a toxicity control, and infected and uninfected cells without the compound serve as basic controls.
(§3) 2. The cultures were incubated at 37° in a 5% carbon dioxide atmosphere for 6 days.
(§4) 3. The tetrazolium salt, XTT, was added to all wells, and cultures were incubated to allow formazan color development by viable cells.
(§5) 4. Individual wells were analyzed spectrophotometrically to quantitate formazan production, and in addition were viewed microscopically for detection of viable cells and confirmation of protective activity.
(§6) 5. Drug-treated virus-infected cells were compared with drug-treated noninfected cells and with other appropriate controls (untreated infected and untreated noninfected cells, drug-containing wells without cells, etc.) on the same plate.
6. The data was reviewed in comparison with four other tests done at the same time and a determination about activity was made.

The subject of series [4] is T4 lymphocytes (CEM cell line). Description: Toxicity control: growth inhibition of uninfected T4 lymphocytes (CEM cell line), XTT. Conditions: for Uninfected response: uninfected CEM cells, vs uninfected untreated control, 6 days, 8640 min. How it is done: as §1, §2, §3, §4, §5, §6

We go through one compound from patent US5464869A, “Use of dimercaptan acids, salts and metabolites thereof as antiretroviral treatments” (Ethicon, Inc., priority 1995, dated 1995).

Where “and” joins values, the source holds several entries; their conditions need not be identical. Identical values can stand only once. Some results are limits rather than exact numbers.

On to `O=C(O)[C@@H](S)[C@@H](S)C(=O)O` [dimercaptosuccinic acid, meso-2,3 dimercaptosuccinic acid], for which, in series [1], the “Effect on excretion of essential minerals” value is on record as “not to increase the excretion of essential minerals”. In addition, the “Heavy metal chelating effect” value in series [2] was “effective heavy metal chelating agent for lead, mercury and arsenic”. For the same compound, the Infected response in series [3] (1.40 × 10^-4 Molar, HIV-1 infected CEM cells, vs uninfected untreated control, 6 days, 140 µM, 8640 min, 140 µM) is 84.32% of Control and 103.60% of Control and 95.01% of Control. Moreover, in series [3] (HIV-1, CEM cells, 6 days, Tables I-IV), the “Conclusion (determination of activity)” value is reported as “CONFIRMED ACTIVE”. Besides, the viability at 140 µM in series [3] (Human immunodeficiency virus 1, CCRF-CEM, in Homo sapiens, 144 h, read-out: Infected response, 1.40 × 10^-4 Molar, HIV-1 infected CEM cells, vs uninfected untreated control, 6 days) was 94.3%. In addition, the “Overall conclusion on antiretroviral effectiveness” value in series [3] (drawn from data of Tables I-IV) was “effective as a treatment for retroviruses in warm blooded animals”. In addition, the Uninfected response in series [4] (1.40 × 10^-4 Molar, 140 µM, 140 µM) was 80.02% of Control and 81.43% of Control and 107.87% of Control and 105.07% of Control; in series [4] (1.40 × 10^-5 Molar, 14 µM, 14 µM) it was 74.62% of Control and 87.58% of Control and 118.28% of Control and 102.83% of Control; in series [4] (4.30 × 10^-4 Molar, 430 µM, 430 µM), 106.57% of Control and 107.46% of Control and 124.09% of Control and 128.49% of Control; in series [4] (4.40 × 10^-5 Molar, 44 µM, 44 µM) it was 84.59% of Control and 85.17% of Control and 125.62% of Control and 102.99% of Control. Also, the IC50 in series [4] (Homo sapiens, CCRF-CEM, 144 h, read-out: 50% inhibitory concentration (IC50)) was above 1400 µM.
